Data published in patent US7390910B2, “Compounds for treating tumors” (priority 2003, dated 2008).
Marks after values point to notes of the source that are not given here. Where a SMILES comes first, the peptide text is derived from it. [ ]: non-standard residue; d: D form. The star is where a group is joined. NMePhe(β,β-Me2) = CN[C@H](C(=O)O)C(C)(C)c1ccccc1; Tle = CC(C)(C)[C@H](N)C(=O)O; NMeV = CN[C@H](C(=O)O)C(C)C; NHBn = c1ccc(CN*)cc1

Legend:
[1] = system: Colo205; test: Cell survival assay (SRB), Colo205; assay type: cell-based; details: Homo sapiens, COLO 205, 72 h, Colo205 cells, 3 days
Protocol: (§1) Cell Survival Assay: Standard Pharmacological Test Procedure. […] Compounds are incubated with cells for 3 days.

[2] = system: KB cells; test: cells; assay type: cell-based; details: 3 days, SRB
Protocol: as §1

[3] = system: KB85; test: cells; assay type: cell-based; details: 3 days, SRB
Protocol: as §1

[4] = system: KBV1; test: cells; assay type: cell-based; details: for IC50: 3 days, SRB; for inhibition at 3 µM: KB-V1, 3000 nM
Protocol: as §1

[5] = system: bovine microtubule-associated protein (MAP)-rich tubulin; assay type: biochemical
Procedure, shortened: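 MAP-rich bovine tubulin at 1.5 mg/ml final was dissolved in cold PEM buffer (80 mM Na-PIPES pH 6.9, 1 mM MgCl2, 1 mM EGTA) with 1 mM GTP, then centrifuged at 12,000×g for 10 min at 4° C. Aliquots of 100 μl were added quickly to a low-volume 96-well plate holding duplicate 10 μl compound samples. Absorbance at 340 nm was read each minute for 60 min at 24° C.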

| Compound | IC50 [1] [nM] | IC50 ([2]; Homo sapiens, KB, 72 h) [nM] | IC50 ([3]; 72 h) [nM] | IC50 ([4]; Homo sapiens, KB-V1, 72 h) [nM] | KBV1 % inhibition @6000 [4] [%@6000] | inhibition at 3 µM ([4]; Homo sapiens) [%] | Tubulin Polym. % inhibition at 0.3 uM [5] [%] | Tubulin Polym. % inhibition at 0.5 uM [5] | IC50 [2] [nM] | IC50 [3] [nM] | IC50 [4] [nM] |
| --- | --- | --- | --- | --- | --- | --- | --- | --- | --- | --- | --- |
| CCOC(=O)/C(C)=C/[C@H](C(C)C)N(C)C(=O)[C@@H](NC(=O)C(SC)C(C)(C)c1ccccc1)C(C)(C)C (stereo partly drawn) [Example 101, Ethyl (E,4S)-4-[((2S)-3,3-dimethyl-2-{[3-methyl-2-methylsulfanyl-3-phenylbutanoyl]amino}butanoyl)(methyl)amino]-2,5-dimethyl-2-hexenoate] | > 1000 | 1100 | 1820 | 4580 | – | – | – | – | – | – | – |
| C=CCC(C(=O)N[C@H](C(=O)N(C)[C@H](/C=C(\C)C(=O)OCC)C(C)C)C(C)(C)C)C(C)(C)c1ccccc1 (stereo partly drawn) [Example 97, Ethyl (E,4S)-4-[((2S)-3,3-dimethyl-2-{[3-methyl-2-allyl-3-phenylbutanoyl]amino}butanoyl)(methyl)amino]-2,5-dimethyl-2-hexenoate] | > 1000 | 1910 | 3320 | – | 17 | – | – | – | – | – | – |
| CCOC(=O)/C(C)=C/[C@H](C(C)C)N(C)C(=O)[C@@H](NC(=O)C(Cc1ccccc1)C(C)(C)c1ccccc1)C(C)(C)C (stereo partly drawn) [Example 95, Ethyl (E,4S)-4-[((2S)-3,3-dimethyl-2-{[3-methyl-2-(benzyl)-3-phenylbutanoyl]amino}butanoyl)(methyl)amino]-2,5-dimethyl-2-hexenoate] | > 1000 | 575 | 756 | – | – | 15 | – | – | – | – | – |
| CCOC(=O)/C(C)=C/[C@H](C(C)C)N(C)C(=O)[C@@H](NC(=O)C(CC)C(C)(C)c1ccccc1)C(C)(C)C (stereo partly drawn) [Example 99, Ethyl (E,4S)-4-[((2S)-3,3-dimethyl-2-{[3-methyl-2-ethyl-3-phenylbutanoyl]amino}butanoyl)(methyl)amino]-2,5-dimethyl-2-hexenoate] | > 1000 | 3480 | 3640 | – | 16 | – | – | – | – | – | – |
| CN[C@H](C(=O)N[C@H](C(=O)N(C)[C@H](/C=C(\C)C(=O)N(C)OC)C(C)C)C(C)(C)C)C(C)(C)c1ccccc1 [Example 52, N,β,β-trimethyl-L-phenylalanyl-N^1-{(1S,2E)-1-isopropyl-4-[methoxy(methyl)-amino]-3-methyl-4-oxobut-2-enyl}-N^1,3-dimethyl-L-valinamide] | – | 11 | 47 | 392 | – | – | 86 | – | – | – | – |
| CN[C@H](C(=O)N[C@H](C(=O)N(C)[C@H](/C=C(\C)C(=O)N1C[C@H](O)C[C@H]1C(=O)OC)C(C)C)C(C)(C)C)C(C)(C)c1ccccc1 [Example 40, N,β,β-trimethyl-L-phenylalanyl-N^1-{(1S,2E)-4-[(2S,4R)-2-(methoxycarbonyl)-4-hydroxypyrrolidin-1-yl]-1-isopropyl-3-methyl-4-oxobut-2-enyl}-N^1,3-dimethyl-L-valinamide] | – | 3.5 | 116 | – | – | 4 | – | 93*** % | – | – | – |
| CN[C@H](C(=O)N[C@H](C(=O)N(C)[C@H](/C=C(\C)C(=O)N1CCOCC1)C(C)C)C(C)(C)C)C(C)(C)c1ccc(C)c(C)c1 [Example 2, N,β,β,3,4-Pentamethyl-L-phenylalanyl-N^1-[(1S,2E)-1-isopropyl-3-methyl-4-morpholin-4-yl-4-oxobut-2-enyl]-N^1,3-dimethyl-L-valinamide] | – | 34 | 62 | 162 | – | – | 37 | – | – | – | – |
| CN[C@H](C(=O)N[C@H](C(=O)N(C)[C@H](/C=C(\C)C(=O)N1CCN(C)CC1)C(C)C)C(C)(C)C)C(C)(C)c1cccc(C)c1.O=C(O)C(F)(F)F [Example 6, N,β,β,3-Tetramethyl-L-phenylalanyl-N^1-[(1S,2E)-1-isopropyl-3-methyl-4-(4-methylpiperazin-1-yl)-4-oxobut-2-enyl]-N^1,3-dimethyl-L-valinamide trifluoroacetic acid salt] | – | 64 | 123 | – | – | 33 | 64 | – | – | – | – |
| CN[C@H](C(=O)N[C@H](C(=O)N(C)[C@H](/C=C(\C)C(=O)N1CCC[C@H]1C(=O)OC)C(C)C)C(C)(C)C)C(C)(C)c1cc(C)cc(C)c1 [Example 19, N,β,β,3,5-Pentamethyl-L-phenylalanyl-N^1-{(1S,2E)-4-[(2S)-2-(methoxycarbonyl)pyrrolidin-1-yl]-1-isopropyl-3-methyl-4-oxobut-2-enyl}-N^1,3-dimethyl-L-valinamide] | – | 5.9 | 50 | 1550 | – | – | 66 | – | – | – | – |
| CN[C@H](C(=O)N[C@H](C(=O)N(C)[C@@H](/C=C(\C)C(=O)OCc1ccc(OCc2ccccc2)cc1)C(C)C)C(C)(C)C)C(C)(C)c1ccccc1 [Example 54, N,β,β-trimethyl-L-phenylalanyl-N^1-((1R,2E)-4-{[4-(benzyloxy)benzyl]oxy}-1-isopropyl-3-methyl-4-oxobut-2-enyl)-N^1,3-dimethyl-L-valinamide] | – | 136 | 846 | – | – | 8 | 55 | – | – | – | – |
| CN[C@H](C(=O)N[C@H](C(=O)N(C)[C@H](/C=C(\C)C(=O)N1CCC[C@H]1C(=O)O)C(C)C)C(C)(C)C)C(C)(C)c1cccc(C)c1 [Example 22, N,β,β,3-Tetramethyl-L-phenylalanyl-N^1-{(1S,2E)-4-[(2S)-2-carboxypyrrolidin-1-yl]-1-isopropyl-3-methyl-4-oxobut-2-enyl}-N^1,3-dimethyl-L-valinamide] | – | 70 | 599 | – | – | 12 | 95 | – | – | – | – |
| CN[C@H](C(=O)N[C@H](C(=O)N(C)[C@H](/C=C(\C)C(=O)N1CCC[C@H]1C(=O)O)C(C)C)C(C)(C)C)C(C)(C)c1cc(C)cc(C)c1 [Example 20, N,β,β,3,5-Pentamethyl-L-phenylalanyl-N^1-{(1S,2E)-4-[(2S)-2-carboxypyrrolidin-1-yl]-1-isopropyl-3-methyl-4-oxobut-2-enyl}-N^1,3-dimethyl-L-valinamide] | – | 82 | 664 | – | – | 3 | 80 | – | – | – | – |
| CN[C@@H](C(=O)N[C@H](C(=O)N(C)[C@H](/C=C(\C)C(=O)N1CCN(Cc2ccccc2)CC1)C(C)C)C(C)(C)C)C(C)(C)c1ccc(C)c(C)c1 [Example 13, N,β,β,3,4-Pentamethyl-D-phenylalanyl-N^1-[(1S,2E)-4-(4-benzylpiperazin-1-yl)-1-isopropyl-3-methyl-4-oxobut-2-enyl]-N^1,3-dimethyl-L-valinamide] | – | 172 | 352 | 1770 | – | – | 11 | – | – | – | – |
| CN[C@H](C(=O)N[C@H](C(=O)N(C)[C@H](/C=C(\C)C(=O)N1C[C@H](O)C[C@H]1C(=O)O)C(C)C)C(C)(C)C)C(C)(C)c1ccccc1 [Example 42, N,β,β-trimethyl-L-phenylalanyl-N^1-{(1S,2E)-4-[(2S,4R)-2-carboxy-4-hydroxypyrrolidin-1-yl]-1-isopropyl-3-methyl-4-oxobut-2-enyl}-N^1,3-dimethyl-L-valinamide] | – | 184 | 1850 | – | – | 0 | 96 | – | – | – | – |
| CN[C@H](C(=O)N[C@H](C(=O)N(C)[C@H](C(=O)N1CCC[C@H]1C(=O)N1CCC[C@H]1C(=O)NCc1ccccc1)C(C)C)C(C)(C)C)C(C)(C)c1ccccc1 [Example 34, N,β,β-trimethyl-L-phenylalanyl-3-methyl-L-valyl-N-methyl-L-valyl-L-prolyl-N-benzyl-L-prolinamide] (H-[NMePhe(β,β-Me2)][Tle][NMeV]PP-NHBn) | – | 0.25 | 4.2 | 1950 | – | 5 | 64 | – | – | – | – |
| CN[C@H](C(=O)N[C@H](C(=O)N(C)[C@H](/C=C(\C)C(=O)N1CCC[C@H]1C(=O)N1CCC[C@H]1C(=O)NCc1ccccc1)C(C)C)C(C)(C)C)C(C)(C)c1cc(C)cc(C)c1 [Example 11, 1-{(2E,4S)-2,5-Dimethyl-4-[methyl(N,β,β,3,5-pentamethyl-L-phenylalanyl-3-methyl-L-valyl)amino]hex-2-enoyl}-L-prolyl-N-benzyl-L-prolinamide] | – | 0.56 | 24 | – | – | 8 | 41 | – | – | – | – |
| CN[C@@H](C(=O)N[C@H](C(=O)N(C)[C@H](/C=C(\C)C(=O)N1CCOCC1)C(C)C)C(C)(C)C)C(C)(C)c1ccc(C)c(C)c1 [Example 4, N,β,β,3,4-Pentamethyl-D-phenylalanyl-N^1[(1S,2E)-1-isopropyl-3-methyl-4-morpholin-4-yl-4-oxobut-2-enyl]-N^1,3-dimethyl-L-valinamide] | – | 375 | 536 | – | – | 42 | 61 | – | – | – | – |
| 3-hydroxy-N-methyl-L-valyl-N^1-[(1S,2E)-4-ethoxy-1-isopropyl-3-methyl-4-oxo-2-butenyl]-N^1,3-dimethyl-L-valinamide and 3-hydroxy-N,N-dimethyl-L-valyl-N^1-[(1S,2E)-4-ethoxy-1-isopropyl-3-methyl-4-oxo-2-butenyl]-N^1,3-dimethyl-L-valinamide [Example 61] | – | – | – | – | – | – | – | 40*** % | 151 | 293 | > 3000 |
